Consider 18 compounds from patent publication US8987314B2, “Amide, urea or sulfone amide linked benzothiazole inhibitors of endothelial lipase” (Bristol-Myers Squibb Company, priority 2012, dated 2015).

Test [1] deals with Endothelial lipase (EL) (Homo sapiens (Human), UniProt Q9Y5X9). Briefly: EL assay: endothelial lipase activity with fluorescent substrate A10070 in DMPG vesicles. It counts as biochemical. In outline: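 Compounds were preincubated with enzyme for 30 min at 37° C before FRET-substrate vesicles (A10070 in DMPG, 0.11 mole fraction) were added. Reaction rates were obtained from the 300–900 sec slope of fluorescence at 490/530 nm.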
Endothelial lipase (EL), sequence (Q9Y5X9 21-500): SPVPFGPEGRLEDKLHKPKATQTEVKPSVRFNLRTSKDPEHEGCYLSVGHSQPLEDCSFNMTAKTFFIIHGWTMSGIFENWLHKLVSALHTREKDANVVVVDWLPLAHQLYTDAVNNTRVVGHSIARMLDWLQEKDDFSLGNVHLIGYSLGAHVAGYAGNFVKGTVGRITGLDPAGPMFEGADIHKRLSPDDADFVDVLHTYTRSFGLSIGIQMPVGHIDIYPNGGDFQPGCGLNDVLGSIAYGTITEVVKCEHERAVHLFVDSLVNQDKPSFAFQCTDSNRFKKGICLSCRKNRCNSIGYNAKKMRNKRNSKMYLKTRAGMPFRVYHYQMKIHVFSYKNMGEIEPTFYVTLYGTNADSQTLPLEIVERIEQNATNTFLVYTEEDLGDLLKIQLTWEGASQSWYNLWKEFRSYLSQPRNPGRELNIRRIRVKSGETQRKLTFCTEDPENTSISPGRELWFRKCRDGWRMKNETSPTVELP

Test [2] addresses hepatic lipase (HL) (Homo sapiens (Human), UniProt P11150). Briefly: HL assay: hepatic lipase activity with fluorescent substrate A10070 in DMPG vesicles. It counts as biochemical. The procedure: Endothelial lipase (EL) and hepatic lipase (HL) activities were measured using a fluorescent substrate, A10070, (Invitrogen, CA) doped into an artificial vesicle containing DMPG (Avanti Polar Lipids) as the excipient. Vesicles were prepared by combining 571 μL of 29 mM DMPG in a 1:1 mixture of MeOH and CHCl3 with 2000 μL of 1 mM A10070 in a 1:1 mixture of MeOH and CHCl3. The mixture was dried under nitrogen in multiple vials then resuspended in 20 mL total volume of 50 mM HEPES pH 8.0 buffer containing 50 mM NaCl and 0.2 mM EDTA. The sample was allowed to sit at room temperature for 15 min and then was sonicated 3×4 mins on ice with a Branson Sonicator using duty cycle 1. This preparation provides vesicles with a mole fraction of 0.11 for the FRET substrate.
The enzymatic assay was measured using 384-well white Optiplates. Each well contained 20 μL of assay buffer (50 mM HEPES pH 8.0, 50 mM NaCl and 1 mM CaCl2) and 0.25 μL of a DMSO solution containing a compound of interest. EL or HL (10 μL) was added and allowed to incubate with the compound for 30 min at 37° C. The source of EL was conditioned media obtained from HT-1080 cells that were transformed using RAGE technology (Athersys) to overexpress endogenous EL, and HL was partially purified from conditioned media obtained from COS cells overexpressing HL. The reaction was started by the addition of 10 μL of a 1:10 dilution of vesicles. The final total reaction volume was […]. The reaction rates were measured on a Gemini plate reader with an excitation wavelength of 490 nm and an emission wavelength of 530 nm. Readings were taken over a period of 60 minutes, and the slope between 300 and 900 secs of the readout was used to calculate the rate of the reaction.

A value given as a limit tells only on which side of the number the result lay.

hepatic lipase (HL), sequence (P11150 23-499, species assumed): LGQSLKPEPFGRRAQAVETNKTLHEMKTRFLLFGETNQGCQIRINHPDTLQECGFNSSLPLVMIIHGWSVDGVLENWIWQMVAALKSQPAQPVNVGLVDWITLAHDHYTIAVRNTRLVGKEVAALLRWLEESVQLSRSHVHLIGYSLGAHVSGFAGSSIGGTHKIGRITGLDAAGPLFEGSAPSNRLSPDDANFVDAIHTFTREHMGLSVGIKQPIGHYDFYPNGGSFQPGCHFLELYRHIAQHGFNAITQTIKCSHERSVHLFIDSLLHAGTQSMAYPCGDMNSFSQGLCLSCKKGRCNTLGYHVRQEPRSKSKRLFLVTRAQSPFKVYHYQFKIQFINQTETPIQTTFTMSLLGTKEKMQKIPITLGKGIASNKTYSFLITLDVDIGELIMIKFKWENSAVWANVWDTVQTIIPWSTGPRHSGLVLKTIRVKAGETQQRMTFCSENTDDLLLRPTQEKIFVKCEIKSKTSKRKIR

On to `CC(C)Cn1cc(-c2ccc3nc(C(C(=O)NCCS(N)(=O)=O)S(C)(=O)=O)sc3c2)cn1` (stereo not drawn) [Example B67, 2-[6-(1-isobutyl-1H-pyrazol-4-yl)-1,3-benzothiazol-2-yl]-2-(methylsulfonyl)-N-(2-sulfamoylethyl)acetamide], for which the half-inhibitory concentration (IC50) – broadly, the concentration that inhibits the measured activity by half – is under 10 nM in test [1] and 41 nM in test [2].

For `CS(=O)(=O)C(C(=O)NCCS(N)(=O)=O)c1nc2ccc(-c3cnn(Cc4ccccc4)c3)cc2s1` (stereo not drawn) [Example B68, 2-[6-(1-benzyl-1H-pyrazol-4-yl)-1,3-benzothiazol-2-yl]-2-(methylsulfonyl)-N-(2-sulfamoylethyl)a-cetamide], the IC50 in test [1] and in test [2] was under 10 nM throughout.

Turning to `NS(=O)(=O)CCNC(=O)C(c1nc2ccc(-c3cnn(CCN4CCOCC4)c3)cc2s1)S(=O)(=O)CCC(F)(F)F` (stereo not drawn) [Example B69, 2-(6-(1-(2-(4-morpholinyl)eth-yl)-1H-pyrazol-4-yl)-1,3-benzothiazol-2-yl)-N-(2-sulfamoylethyl)-2-((3,3,3-trifluoropropyl)sul-fonyl)acetamide], the IC50 in test [1] was under 10 nM; in test [2], 612 nM.

In the case of `COCCS(=O)(=O)C(C(=O)NCCS(N)(=O)=O)c1nc2ccc(-c3ccc(NC(=O)OC(C)(C)C)cc3)cc2s1` (stereo not drawn) [Example B70, tert-butyl (4-(2-(1-((2-methoxyethyl)sulfonyl)-2-oxo-2-((2-sulfamoylethyl)a-mino)ethyl)-1,3-benzothiazol-6-yl)phenyl)car-bamate], the IC50 in test [1] and in test [2] was under 10 nM in each case.

Consider `COCCS(=O)(=O)C(C(=O)NCCS(N)(=O)=O)c1nc2ccc(-c3ccc(NC(=O)OC)cc3)cc2s1` (stereo not drawn) [Example B71, methyl (4-(2-(1-((2-methoxyethyl)sulfonyl)-2-oxo-2-((2-sulfamoylethyl)a-mino)ethyl)-1,3-benzothiazol-6-yl)phenyl)car-bamate], for which the IC50 in test [1] and in test [2] was under 10 nM throughout.

Consider `NS(=O)(=O)CCNC(=O)C(c1nc2ccc(-c3ccnc(F)c3)cc2s1)S(=O)(=O)CCC(F)(F)F` (stereo not drawn) [Example B72, 2-(6-(2-fluoro-4-pyridinyl)-1,3-benzothiazol-2-yl)-N-(2-sulfamoylethyl)-2-((3,3,3-trifluoropropyl)sulfonyl)a-cetamide], for which the results for the half-inhibitory concentration (IC50) in test [1] and in test [2] were under 10 nM and 68 nM, respectively.

As for `NS(=O)(=O)CCNC(=O)C(c1nc2ccc(-c3cnn(CCN4CCOCC4)c3)cc2s1)S(=O)(=O)Cc1ccc(C(F)(F)F)cc1` (stereo not drawn) [Example B73, 2-(6-(1-(2-(4-morpholinyl)ethyl)-1H-pyrazol-4-yl)-1,3-benzothiazol-2-yl)-N-(2-sulfamoylethyl)-2-((4-(trifluoromethyl)benzyl)sul-fonyl)acetamide], the IC50 in test [1] was under 10 nM; in test [2] it was 15900 nM.

As for `CS(=O)(=O)C(C(=O)NCCS(N)(=O)=O)c1nc2ccc(-c3cnn(-c4ccc(F)cc4)c3)cc2s1` (stereo not drawn) [Example B74, 2-(6-(1-(4-fluorophenyl)-1H-pyrazol-4-yl)-1,3-benzothiazol-2-yl)-2-(methylsulfonyl)-N-(2-sulfamoylethyl)acetamide], the 50% inhibitory concentration (IC50) in test [1] and in test [2] was under 10 nM each time.

`NS(=O)(=O)CCNC(=O)C(c1nc2ccc(-c3cnn(CCN4CCOCC4)c3)cc2s1)S(=O)(=O)Cc1ccc(F)cc1` (stereo not drawn) [Example B75, 2-((4-fluorobenzyl)sul-fonyl)-2-(6-(1-(2-(4-morpholinyl)ethyl)-1H-pyrazol-4-yl)-1,3-benzothiazol-2-yl)-N-(2-sulfamoylethyl)acetamide]: the IC50 was under 10 nM in test [1] and 25000 nM in test [2].

Turning to `CC(C)(C)OC(=O)N1CCC(n2cc(-c3ccc4nc(C(C(=O)NCCS(N)(=O)=O)S(C)(=O)=O)sc4c3)cn2)CC1` (stereo not drawn) [Example B76, tert-butyl 4-(4-(2-(1-(methylsulfonyl)-2-oxo-2-((2-sulfamoyl-ethyl)amino)ethyl)-1,3-benzothiazol-6-yl)-1H-pyrazol-1-yl)-1-piperidinecarboxylate], the IC50 is under 10 nM in test [1] and 21 nM in test [2].

Turning to `NS(=O)(=O)CCNC(=O)C(c1nc2ccc(-c3cnn(CCN4CCOCC4)c3)cc2s1)S(=O)(=O)CC1CC1` (stereo not drawn) [Example B77, 2-[(cyclopropylmethyl)sul-fonyl]-2-(6-{1-[2-(4-morpholinyl)ethyl]-1H-pyrazol-4-yl}-1,3-benzothiazol-2-yl)-N-(2-sulfamoylethyl)acetamide], the values for the 50% inhibitory concentration (IC50) in test [1] and in test [2] were under 10 nM and 2260 nM, respectively.

As for `CS(=O)(=O)C(C(=O)NCCS(N)(=O)=O)c1nc2ccc(-c3c[nH]nc3C(F)(F)F)cc2s1` (stereo not drawn) [Example B78, 2-(methylsulfonyl)-N-(2-sulfamoylethyl)-2-(6-(3-(trifluoromethyl)-1H-pyrazol-4-yl)-1,3-benzothiazol-2-yl)a-cetamide], the results for the IC50 in test [1] and in test [2] were under 10 nM and 68 nM, respectively.

As to `COc1cccc(-c2ccc3nc(C(C(=O)NCCS(N)(=O)=O)S(C)(=O)=O)sc3c2)c1` (stereo not drawn) [Example B79, 2-(6-(3-methoxyphenyl)-1,3-benzothiazol-2-yl)-2-(methylsulfonyl)-N-(2-sulfamoylethyl)acetamide], the IC50 in test [1] and in test [2] was under 10 nM in each case.

On to `Cc1nnc(CNC(=O)C(c2nc3cc(C)c(-c4ccc(F)nc4)cc3s2)S(C)(=O)=O)o1` (stereo not drawn) [Example B80, 2-[6-(6-fluoro-3-pyridinyl)-5-methyl-1,3-benzothiazol-2-yl]-N-[(5-methyl-1,3,4-oxadiazol-2-yl)methyl]-2-(methylsulfonyl)acetamide], for which the IC50 in test [1] and in test [2] was under 10 nM throughout.

In the case of `Cc1nnc(CNC(=O)C(c2nc3cc(C)c(-c4ccc(C(=O)N5CCOCC5)cc4)cc3s2)S(C)(=O)=O)o1` (stereo not drawn) [Example B81, 2-{5-methyl-6-[4-(4-morpholinylcarbonyl)phen-yl]-1,3-benzothiazol-2-yl}-N-[(5-methyl-1,3,4-oxadiazol-2-yl)methyl]-2-(methylsulfonyl)acetamide], the IC50 in test [1] was 14 nM; in test [2] it was 196 nM.

Turning to `Cc1nnc(CNC(=O)C(c2nc3cc(C)c(-c4ccccc4)cc3s2)S(C)(=O)=O)o1` (stereo not drawn) [Example B82, N-((5-methyl-1,3,4-oxadiazol-2-yl)methyl)-2-(5-methyl-6-phenyl-1,3-benzothiazol-2-yl)-2-(methylsulfonyl)acetamide], the results for the IC50 in test [1] and in test [2] were 85 nM and 177 nM, respectively.

As for `Cc1nnc(CNC(=O)C(c2nc3cc(C)c(-c4cnn(CCN5CCOCC5)c4)cc3s2)S(C)(=O)=O)o1` (stereo not drawn) [Example B83, 2-(5-methyl-6-(1-(2-(4-morpholinyl)ethyl)-1H-pyrazol-4-yl)-1,3-benzothiazol-2-yl)-N-((5-methyl-1,3,4-oxadiazol-2-yl)methyl)-2-(methylsulfonyl)acetamide], the IC50 amounted to 77 nM in test [1] and 229 nM in test [2].

As for `Cc1nnc(CNC(=O)C(c2nc3cc(C)c(-c4ccc(N5CCNCC5)cc4)cc3s2)S(C)(=O)=O)o1` (stereo not drawn) [Example B84, N-((5-methyl-1,3,4-oxadiazol-2-yl)methyl)-2-(5-methyl-6-(4-(piperazin-1-yl)phenyl)-1,3-benzothiazol-2-yl)-2-(methylsulfonyl)acetamide], the IC50 in test [1] stood at 34 nM; in test [2] it was 350 nM.
